# Laboratory results: publication PMC7158045 (BMC Plant Biology, 2020)
# Legend:
# Test in all cases: biochemical
# ZmDRIK1-K217-P492 = target: T1, ZmDRIK1-K217-P492 (Zea mays, UniProt C0P4K9); settings: read-out: dTm B, sheet ZmDRIK1-K217-P492;; DSF, Boltzmann fit, 0.1% DMSO
# T1 construct: kinase domain, K217-P492
# T1 sequence (C0P4K9 1-514): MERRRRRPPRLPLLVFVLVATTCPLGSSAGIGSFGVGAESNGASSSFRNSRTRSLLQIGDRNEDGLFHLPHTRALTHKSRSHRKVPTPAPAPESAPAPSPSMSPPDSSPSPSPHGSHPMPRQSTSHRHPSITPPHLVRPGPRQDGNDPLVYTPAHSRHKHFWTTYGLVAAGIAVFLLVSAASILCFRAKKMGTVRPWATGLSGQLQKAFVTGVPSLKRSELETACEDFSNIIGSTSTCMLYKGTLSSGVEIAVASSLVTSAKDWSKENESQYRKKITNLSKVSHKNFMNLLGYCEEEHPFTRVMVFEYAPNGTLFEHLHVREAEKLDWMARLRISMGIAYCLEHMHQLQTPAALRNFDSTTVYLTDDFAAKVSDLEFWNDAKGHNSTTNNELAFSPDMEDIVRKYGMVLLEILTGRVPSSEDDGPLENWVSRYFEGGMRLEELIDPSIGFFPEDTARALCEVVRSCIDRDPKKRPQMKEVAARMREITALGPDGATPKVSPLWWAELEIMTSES
# ZmDRIK1-K217-S514 = target: T2, ZmDRIK1-K217-S514 (Zea mays, UniProt C0P4K9); settings: read-out: dTm B, sheet ZmDRIK1-K217-S514;; DSF, Boltzmann fit, 0.1% DMSO
# T2 construct: kinase domain, K217-S514
# T2 sequence (C0P4K9 1-514): T1 sequence (C0P4K9 1-514)
# [1] = target: T3, ZmDRIK1 (DROUGHT RESPONSIVE INACTIVE KINASE 1), kinase domain (Zea mays, UniProt C0P4K9); settings: read-out: dTm B, sheet ZmDRIK1-R187-S514;; DSF, Boltzmann fit, 0.1% DMSO
# T3 construct: gene ZEAMMB73_Zm00001d028770; ZmDRIK1-KD R187-S514 (kinase domain)
# T3 sequence (C0P4K9 187-514): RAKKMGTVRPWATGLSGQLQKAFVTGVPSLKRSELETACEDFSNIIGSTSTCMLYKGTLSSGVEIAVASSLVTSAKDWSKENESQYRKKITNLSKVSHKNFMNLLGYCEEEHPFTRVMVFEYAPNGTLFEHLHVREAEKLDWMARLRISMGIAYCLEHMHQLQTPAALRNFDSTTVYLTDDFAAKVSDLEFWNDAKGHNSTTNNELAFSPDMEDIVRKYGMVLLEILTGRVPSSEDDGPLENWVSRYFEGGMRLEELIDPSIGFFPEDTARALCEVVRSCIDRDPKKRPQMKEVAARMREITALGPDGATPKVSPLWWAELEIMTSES
# ZmDRIK1-R187-P492 = target: T4, ZmDRIK1-R187-P492 (Zea mays, UniProt C0P4K9); settings: read-out: dTm B, DSF, Boltzmann fit, 0.1% DMSO
# T4 construct: kinase domain, R187-P492
# T4 sequence (C0P4K9 1-514): T1 sequence (C0P4K9 1-514)
Structure (SMILES),ΔTm at 10 µM (ZmDRIK1-K217-P492) [°C],ΔTm at 10 µM (ZmDRIK1-K217-S514) [°C],ΔTm at 10 µM [1] [°C],ΔTm at 10 µM (ZmDRIK1-R187-P492) [°C]
O=C1Nc2ccccc2/C1=C1/Nc2ccccc2C1=O [Indirubin],-1.26,-0.386,-0.784,-0.337
Cc1ccc(S(=O)(=O)/C=C/C#N)cc1 [BAY 11-7082],-2.48,-0.963,-1.51,-1.15
COc1ccc(F)c(F)c1C(=O)c1cnc(NC2CCN(S(C)(=O)=O)CC2)nc1N [R547],-1.09,-0.339,-0.939,-0.297
COc1ccc(Cl)cc1NC(=O)Nc1cc(C)nc2ccccc12 [PQ 401],-0.962,-0.394,-1.59,-0.365
CCCCCCCCCCCCc1ccc(S(=O)(=O)Nc2nncs2)cc1 [PHT-427],-1.79,-0.296,-1.24,-0.255
COc1cccc(-c2cc(=O)c3ccccc3o2)c1N [PD98059],-1.13,-0.33,-1.1,-0.0775
CCCNC(=O)Nc1ccc(Oc2ncnc3cc(OC)c(OC)cc23)cc1Cl [KRN 633],-0.52,-0.102,-1.02,-0.332
COc1ccc(S(=O)(=O)N(CCO)c2ccccc2CN(C)C/C=C/c2ccc(Cl)cc2)cc1 [KN-93 Phosphate],-4.4,-0.811,-0.375,-1.06
C[C@@H](N)[C@H]1CC[C@H](C(=O)Nc2ccncc2)CC1 [Y-27632 2HCl],-1.25,-0.475,-0.584,-0.155
CNC(=O)c1cc(Oc2ccc(NC(=O)Nc3ccc(Cl)c(C(F)(F)F)c3)c(F)c2)ccn1 [Regorafenib (BAY 73-4506)],-8.99,-0.13,-15.3,-5.88
Cc1ccc(-c2nn(C(C)(C)C)c3ncnc(N)c23)cc1 [PP1],-1.01,-0.253,-0.972,-0.136
COc1ccc(Cl)c(Nc2nc3ccccc3nc2NS(=O)(=O)c2cccc(NC(=O)C(C)(C)N)c2)c1 [XL147],0.134,0.807,-0.972,-0.0333
CC(C)n1nc(-c2ccc3oc(N)nc3c2)c2c(N)ncnc21 [INK 128 (MLN0128)],-0.659,-0.433,-0.628,-0.315
O=C(NC[C@H](O)CO)c1ccncc1Nc1ccc(I)cc1F [Pimasertib (AS-703026)],-0.841,-0.594,-0.651,-0.33
CC(C)CC(=O)Nc1n[nH]c2c1CN(C(=O)C1CCN(C)CC1)C2(C)C [PHA-793887],-0.634,-0.312,-0.826,-0.158
N#Cc1c(O)c2c(-c3ccc(-c4ccccc4O)cc3)csc2[nH]c1=O [A-769662],-1.24,-0.453,-1.11,-0.292
COCC(=O)NC/C=C/c1ccc2ncnc(Nc3ccc(Oc4ccc(C)nc4)c(C)c3)c2c1 [CP-724714],-1.14,-0.357,-0.904,-0.193

# Now from value to compound:
ΔTm at 10 µM (ZmDRIK1-K217-P492) [°C],ΔTm at 10 µM (ZmDRIK1-K217-S514) [°C],ΔTm at 10 µM [1] [°C],ΔTm at 10 µM (ZmDRIK1-R187-P492) [°C],Structure (SMILES)
-1.19,-0.731,-0.643,-0.498,c1cncc(CN2CCC(n3ncc4c(N5CCOCC5)nc(-c5ccc6[nH]ccc6c5)nc43)CC2)c1 [WAY-600]
-0.953,-0.31,-0.814,-0.18,COc1ccc(-c2cc3c(C)nc(N)nc3n([C@H]3CC[C@H](OCCO)CC3)c2=O)cn1 [PF-04691502]
-0.85,-0.0976,-0.894,-0.165,Cc1cc(Nc2cc(CN3CCOCC3)c3nc(C)c(Cc4ccc(Cl)cc4F)n3n2)n[nH]1 [LY2784544]
-0.762,-0.199,-1.02,-0.113,FC(F)c1nc2ccccc2n1-c1nc(N2CCOCC2)nc(N2CCOCC2)n1 [ZSTK474]
-1.06,-0.652,-0.693,-0.504,NC1(C(=O)N[C@@H](CCO)c2ccc(Cl)cc2)CCN(c2ncnc3[nH]ccc23)CC1 [AZD5363]
-0.48,-0.42,-0.456,0.716,O=C(NCc1cccc(O)c1)Nc1nc(-c2ccncc2)cs1 [RKI-1447]
-1.45,0.0316,-0.638,0.148,CS(=O)(=O)c1cccc(CNc2nc(Nc3ccc4c(c3)CCC(=O)N4)ncc2C(F)(F)F)c1 [PF-573228]
-4.57,0.363,-1.61,-0.305,Cc1ccc(C(=O)Nc2ccc(CN3CCN(C)CC3)c(C(F)(F)F)c2)cc1C#Cc1cnc2[nH]ncc2c1 [GZD824]
-0.91,-0.239,-0.824,-0.154,COc1cc2/c(=N/c3ccc(Br)cc3F)nc[nH]c2cc1OCC1CCN(C)CC1 [Vandetanib (ZD6474)]
-0.984,-0.317,-0.897,-0.311,Cc1cnc(Nc2ccc(N3CCN(C)CC3)cc2)nc1Nc1cccc(S(=O)(=O)NC(C)(C)C)c1 [TG101209]
-1.16,-0.594,-0.878,-0.607,O=C(Nc1nc2cccc(-c3ccc(CN4CCS(=O)(=O)CC4)cc3)n2n1)C1CC1 [Filgotinib (GLPG0634)]
-0.79,-0.297,-0.75,-0.00936,Nc1cccc(-c2cc3c(Oc4cccc(O)c4)ncnc3[nH]2)c1 [TWS119]
-1.3,-0.29,-0.792,-0.282,CC[C@@H]1C(=O)N(C)c2cnc(Nc3ccc(C(=O)N[C@H]4CC[C@H](N5CCN(CC6CC6)CC5)CC4)cc3OC)nc2N1C(C)C [Volasertib (BI 6727)]
-0.796,-0.279,-0.862,-0.283,O=C1NC(=O)/C(=C/c2ccc3nccc(-c4ccncc4)c3c2)S1 [GSK1059615]
-0.936,-0.286,-0.734,-0.167,CN(C)CCOc1ccc(-c2nc(-c3ccncc3)c(-c3ccc4c(c3)CC/C4=N\O)[nH]2)cc1 [SB590885]
-0.7,-0.351,-0.576,-0.0185,Cn1cc(-c2ccc3nnc(Sc4ccc5ncccc5c4)n3n2)cn1 [SGX-523]
0.0733,0.865,-0.172,0.533,COc1ccccc1-c1cc(Nc2cccc(CS(N)(=O)=O)c2)ncn1 [LDC000067]
-0.759,0.339,-0.971,-0.25,Clc1ccc(C2(c3ccc(-c4cn[nH]c4)cc3)CCNCC2)cc1 [AT7867]
-1.14,-0.359,-0.597,-0.476,C=CC(=O)N1CCC[C@@H](n2nc(-c3ccc(Oc4ccccc4)cc3)c3c(N)ncnc32)C1 [Ibrutinib (PCI-32765)]
-0.642,-0.412,-0.541,-0.608,CN1CCN(c2nc(C3=C(c4c[nH]c5ccccc45)C(=O)NC3=O)c3ccccc3n2)CC1 [Sotrastaurin]
-0.874,-0.184,-0.881,-0.0828,O=c1cc(N2CCOCC2)oc2c(-c3ccccc3)cccc12 [LY294002]
-0.98,-0.699,-0.589,-0.37,Cc1c(Cn2c(C)nc3c(C(=O)O)cc(N4CCOCC4)cc32)cccc1C(F)(F)F [GSK2636771]
